# Reference: US20110305637A1, “RADIOLABELLED PDE10 LIGANDS” (Janssen Pharmaceutica N.V., priority 2009, published 2011)
# Several values for one entry are separate records, joined by “and”; a condition that tells them apart may be missing. Identical values can stand only once.
# Test: Biodistribution study in male Wistar rats
# Assay type: in vivo, rat
# Procedure: (§1) The biodistribution study of [^18F]B-1 was carried out in male Wistar rats (body weight 250-350 g) at 2 min, 30 min and 60 min post injection (p.i.) (n=3/time point). Rats were injected with about 1.1 MBq of the tracer via tail vein under anesthesia (2.5% Isoflurane in O2 at 1 L/min flow rate) and sacrificed by decapitation at above specified time points. Blood and major organs were collected in tared tubes and weighed. The radioactivity in blood, organs and other body parts was measured using an automated gamma counter The distribution of radioactivity in different parts of the body at different time points p.i. of the tracer was calculated and expressed as percentage of injected dose (% ID), and as percentage of injected dose per gram tissue (% ID/g) for the selected organs. % ID is calculated as cpm in organ/total cpm recovered. For calculation of total radioactivity in blood, blood mass was assumed to be 7% of the body mass.
# as §1, with “[^18F]B-2” for “[^18F]B-1”, “270-340” for “250-350”
# [1] = 2 min p.i., % ID/g values normalized for the body weight
# [2] = 2 min p.i., normalized for body weight
# [3] = 30 min p.i., % ID/g values normalized for the body weight
structure (smiles),measurement,setting,value
[18F]CCCn1cc(-c2ccncc2)c(-c2ccc(OCc3ccc4ccccc4n3)cc2)n1 [[^18F]B-1],% ID in Carcass,2 min p.i.,27.70 ± 0.7 % ID
same,% ID in Cerebellum,2 min p.i.,0.096 ± 0.0 % ID
same,% ID in Cerebrum total,2 min p.i.,0.4 % ID and 0.407 ± 0.1 % ID
same,% ID in Cortex,2 min p.i.,0.072 ± 0.01 % ID
same,% ID in Heart,2 min p.i.,0.87 ± 0.1 % ID
same,% ID in Hippocampus,2 min p.i.,0.013 ± 0.00 % ID
same,% ID in Intestines,2 min p.i.,8.89 ± 0.5 % ID
same,% ID in Kidneys,2 min p.i.,5.31 ± 0.7 % ID
same,% ID in Liver,2 min p.i.,48.20 ± 1.8 % ID
same,% ID in Lungs,2 min p.i.,2.79 ± 0.6 % ID
same,% ID in Rest of cerebrum,2 min p.i.,0.307 ± 0.05 % ID
same,% ID in Spleen + Pancreas,2 min p.i.,1.63 ± 0.1 % ID
same,% ID in Stomach,2 min p.i.,1.74 ± 0.2 % ID
same,% ID in Striatum,2 min p.i.,0.015 % ID and 0.015 ± 0.00 % ID
same,% ID in Urine,2 min p.i.,0.09 ± 0.0 % ID
same,% ID/g in Blood,2 min p.i.,0.19 ± 0.02 % ID/g
same,% ID/g in Cerebellum,2 min p.i.,0.39 ± 0.06 % ID/g
same,% ID/g in Cerebrum + Cerebellum,2 min p.i.,0.33 ± 0.05 % ID/g
same,% ID/g in Cerebrum total,2 min p.i.,0.31 ± 0.05 % ID/g
same,% ID/g in Cortex,2 min p.i.,0.40 ± 0.11 % ID/g
same,% ID/g in Heart,2 min p.i.,1.06 ± 0.20 % ID/g
same,% ID/g in Liver,2 min p.i.,3.79 ± 0.19 % ID/g
same,% ID/g in Lungs,2 min p.i.,2.36 ± 0.75 % ID/g
same,% ID/g in Rest of cerebrum,2 min p.i.,0.30 ± 0.04 % ID/g
same,% ID/g in Spleen + Pancreas,2 min p.i.,1.18 ± 0.17 % ID/g
same,striatum/blood ratio,[1],2.1
same,striatum/cortex ratio,[1],1.0
same,striatum/hippocampus ratio,[1],2.0
same,total brain uptake of the tracer,"2 min p.i., % of injected dose",~0.5%
same,% ID/g × kg in Blood,[2],0.05 ± 0.00 % ID/g × kg
same,% ID/g × kg in Cerebellum,[2],0.100 ± 0.02 % ID/g × kg
same,% ID/g × kg in Cerebrum + Cerebellum,[2],0.08 ± 0.01 % ID/g × kg
same,% ID/g × kg in Cerebrum total,[2],0.080 ± 0.01 % ID/g × kg
same,% ID/g × kg in Cortex,[2],0.103 ± 0.03 % ID/g × kg
same,% ID/g × kg in Heart,[2],0.27 ± 0.05 % ID/g × kg
same,% ID/g × kg in Hippocampus,[2],0.052 ± 0.01 % ID/g × kg
same,% ID/g × kg in Kidneys,[2],0.57 ± 0.07 % ID/g × kg
same,% ID/g × kg in Liver,[2],0.97 ± 0.05 % ID/g × kg
same,% ID/g × kg in Lungs,[2],0.60 ± 0.19 % ID/g × kg
same,% ID/g × kg in Rest of cerebrum,[2],0.077 ± 0.01 % ID/g × kg
same,% ID/g × kg in Spleen + Pancreas,[2],0.30 ± 0.04 % ID/g × kg
same,% ID/g × kg in Striatum,[2],0.102 ± 0.01 % ID/g × kg
same,% ID in Blood,30 min p.i.,2.12 ± 0.1 % ID
same,% ID in Carcass,30 min p.i.,25.24 ± 1.7 % ID
same,% ID in Cerebellum,30 min p.i.,0.021 ± 0.0 % ID
same,% ID in Cerebrum total,30 min p.i.,0.158 ± 0.01 % ID
same,% ID in Cortex,30 min p.i.,0.018 ± 0.00 % ID
same,% ID in Heart,30 min p.i.,0.22 ± 0.0 % ID
same,% ID in Hippocampus,30 min p.i.,0.004 ± 0.00 % ID
same,% ID in Intestines,30 min p.i.,14.44 ± 3.0 % ID
same,% ID in Kidneys,30 min p.i.,1.55 ± 0.1 % ID
same,% ID in Liver,30 min p.i.,49.64 ± 5.3 % ID
same,% ID in Lungs,30 min p.i.,1.81 ± 0.0 % ID
same,% ID in Rest of cerebrum,30 min p.i.,0.122 ± 0.00 % ID
same,% ID in Spleen + Pancreas,30 min p.i.,0.42 ± 0.1 % ID
same,% ID in Stomach,30 min p.i.,4.60 ± 0.6 % ID
same,% ID in Striatum,30 min p.i.,0.014 ± 0.00 % ID
same,% ID in Urine,30 min p.i.,0.61 ± 0.3 % ID
same,% ID/g in Blood,30 min p.i.,0.12 ± 0.01 % ID/g
same,% ID/g in Cerebellum,30 min p.i.,0.09 ± 0.01 % ID/g
same,% ID/g in Cerebrum + Cerebellum,30 min p.i.,0.12 ± 0.01 % ID/g
same,% ID/g in Cerebrum total,30 min p.i.,0.12 ± 0.01 % ID/g
same,% ID/g in Cortex,30 min p.i.,0.11 ± 0.02 % ID/g
same,% ID/g in Heart,30 min p.i.,0.26 ± 0.02 % ID/g
same,% ID/g in Hippocampus,30 min p.i.,0.08 ± 0.01 % ID/g
same,% ID/g in Kidneys,30 min p.i.,0.64 ± 0.04 % ID/g
same,% ID/g in Liver,30 min p.i.,4.00 ± 0.37 % ID/g
same,% ID/g in Lungs,30 min p.i.,1.38 ± 0.11 % ID/g
same,% ID/g in Rest of cerebrum,30 min p.i.,0.12 ± 0.01 % ID/g
same,% ID/g in Spleen + Pancreas,30 min p.i.,0.27 ± 0.01 % ID/g
same,% ID/g in Striatum,30 min p.i.,0.41 ± 0.00 % ID/g
same,striatum/blood ratio,[3],3.5
same,striatum/cerebellum ratio,[3],4.6
same,striatum/cortex ratio,[3],3.9
same,striatum/hippocampus ratio,[3],5.1
